Literature values, collected in patent US5534537A, “Prodrugs of inhibitors of farnesyl-protein transferase” (Merck & Co., Inc., priority 1995, dated 1996).

Test system: farnesyl-protein transferase
Details: via inhibition of HMG-CoA reductase, literature (Hancock et al.; Casey et al.; Schafer et al.)

Compound | Indirect inhibition of farnesyl-protein transferase in vivo
CC[C@H](C)C(=O)O[C@H]1CCC=C2C=C[C@H](C)[C@H](CC[C@@H]3C[C@@H](O)CC(=O)O3)[C@H]21 [compactin] | Indirect inhibition
CC[C@H](C)C(=O)O[C@H]1C[C@@H](C)C=C2C=C[C@H](C)[C@H](CC[C@@H]3C[C@@H](O)CC(=O)O3)[C@H]21 [lovastatin] | Indirect inhibition
